In brackets after ≈: the same amount, converted by molar mass. Where two headings read alike, the source gives them in different places.
How the values were obtained:
[1] = tested on: P. berghei expressing GFP; assay: P. berghei transmission from treated mice to A. stephensi; details: mice treated i.p., Compound 29 at 10 mg/kg; mosquitoes fed 30 minutes after dosing
AblKD = AblKD (Homo sapiens (Human), UniProt P00519); assay: Tyrosine kinase IC50, AblKD; format: biochemical; details: Table 9
PfCDPK1 = PfCDPK1 (Plasmodium falciparum (isolate 3D7), UniProt P62344); assay: biochemical
PfCDPK4 = PfCDPK4 (Plasmodium falciparum (isolate 3D7), UniProt Q8IBS5); assay: biochemical
[2] = Solubility in buffers of various pH; format: physicochemical; details: buffer
CpCDPK1 = CpCDPK1 (Cryptosporidium parvum (strain Iowa II), UniProt A3FQ16); assay: biochemical; format: biochemical
SrcKD = SrcKD (Homo sapiens (Human), UniProt P12931); assay: Tyrosine kinase IC50, SrcKD; format: biochemical
HckKD = HckKD (Homo sapiens (Human), UniProt P08631); assay: Tyrosine kinase IC50, HckKD; format: biochemical; details: Table 9
SRC = SRC (Homo sapiens (Human), UniProt P12931); details: for IC50: read-out: IC50 (μM) Src
in vivo = details: mouse, ip
Src3D = Src3D (Homo sapiens (Human), UniProt P12931); assay: biochemical
glioma derived (SF539) = assay: Growth inhibition of human cell line SF539; details: for GI50: read-out: GI50 (μM) SF539
[3] = tested on: human promyelocytic leukemia (HL-60); assay: Growth inhibition of human cell line HL-60; details: for GI50: read-out: GI50 (μM) HL60
[4] = tested on: human lymphocyte (CRL8155); assay: Growth inhibition of human cell line CRL8155; details: for GI50: read-out: GI50 (μM) CRL8155
[5] = tested on: colorectal carcinoma (HC 2998); assay: Growth inhibition of human cell line HC 2998; details: for GI50: read-out: GI50 (μM) HCC2998
[6] = Blood levels after oral gavage dosing of mice (LC-MS)
human fibroblast = assay: Human fibroblast replication / cytotoxicity (Alamar blue); format: cell-based
C. parvum = assay: Immunosuppressed (SCID-beige) mouse C. parvum model; format: in vivo, Cryptosporidium parvum; details: SCID-beige mice; oral gavage once a day, days 3-7 and 10-14; 29 and 150 at 50 mg/kg/day, Paromomycin 2 g/kg/day
Experimental: Shown are mean of the parasite numbers detected in 25 mg of stool from each mouse, by qRT-PCR.

[7] = pH 6.5, aqueous buffer, read-out: Experimental Solubility pH 6.5
[8] = Table 8, read-out: IC50 (μM) CpCDPK1

CC(C)(C)n1nc(-c2ccc3ccccc3c2)c2c(N)ncnc21 [NA-PP2, reference compound]
formation of oocysts in A. stephensi fed on treated mice [1]: hundreds of oocysts per mosquito

CC(C)(C)n1nc(-c2ccccc2)c2c(N)ncnc21 [Compound 140]
IC50 (AblKD): 0.636 µM
EC50 (PfCDPK1): 337 nM
EC50 (PfCDPK4): 399 nM
solubility [2, 7]: 22 µM (≈ 5.88 µg/mL)

COc1ccc2cc(-c3nn(C(C)C)c4ncnc(N)c34)ccc2c1 [Compound 7q, 1-isopropyl-3-(6-methoxynaphthalen-2-yl)-1H-pyrazolo[3,4-d]pyrimidin-4-amine]
IC50 (CpCDPK1; read-out: IC50 (μM) CpCDPK1): 0.005 µM
IC50 (SrcKD): 0.77 µM
IC50 (HckKD): 0.375 µM
EC50 (PfCDPK1): 208 nM
EC50 (PfCDPK4): 41.4 nM
IC50 (SRC): 0.77 µM
AUC (in vivo): 4.6 µM·h
Cmax (in vivo): 3.8 µM
Tmax (in vivo): 30 min
IC50 (Src3D): 576 nM
Cell Toxicity SF539, % at 10 μM (glioma derived (SF539)): <30% at 10 μM
GI50 (glioma derived (SF539)): > 10 µM
Cell Toxicity HL60, % at 10 μM [3]: <30% at 10 μM
GI50 [3]: > 10 µM
Cell Toxicity CRL8155, % at 10 μM [4]: <30% at 10 μM
GI50 [4]: > 10 µM
Cell Toxicity HCC2998, % at 10 μM [5]: <30% at 10 μM
GI50 [5]: > 10 µM
AUC ([6]; mouse, in vivo, po): 35.3 µM·h
Cmax ([6]; mouse, in vivo, po): 19.7 µM
Tmax ([6]; mouse, in vivo, po): 30 min

CCOc1ccc2cc(-c3nn(CC4CCN(C)CC4)c4ncnc(N)c34)ccc2c1 [Compound 150, 3-(6-ethoxynaphthalen-2-yl)-1-((1-methylpiperidin-4-yl)methyl)-1H-pyrazolo[3,4-d]pyrimidin-4-amine]
Observed HFF Toxicity (T at concentration) (human fibroblast): T at 25 μM
IC50 (SrcKD; Table 9): > 10 µM
IC50 (AblKD): > 3 µM
EC50 (PfCDPK4): 33.7 nM
IC50 (PfCDPK4): 10 nM
parasites in stool (qRT-PCR) at the end of treatment (C. parvum): not detected
Cell Toxicity HL60, % at 10 μM [3]: <30% at 10 μM
Cell Toxicity HL60, % at 30 μM [3]: <30% at 30 μM
Cell Toxicity CRL8155, % at 10 μM [4]: <30% at 10 μM
Cell Toxicity CRL8155, % at 30 μM [4]: <30% at 30 μM
Blood level, First Peak ([6]; mice, 40 mg/kg oral gavage 3x daily for 4 days, 1 hr after first dose, mean±SD, N=3): 2.1 ± 1.2 µM
Blood level, Fourth D4 Peak ([6]; mice, 40 mg/kg oral gavage 3x daily for 4 days, 1 hr after third dose of d4, mean±SD, N=3): 8.9 ± 3.4 µM
Blood level, First Trough ([6]; mice, 40 mg/kg oral gavage 3x daily for 4 days, 17 hours after dosing, beginning of d2, mean±SD, N=3): 2.0 ± 1.6 µM
Cmax ([6]; mouse, in vivo, po, 10 mg/kg): 0.8 µM
Tmax ([6]; mouse, in vivo, po, 10 mg/kg): 129 min
concentration at 17 h ([6]; mouse, in vivo, po, 40 mg/kg): 6.3 ± 1.8 µM

CC(C)n1nc(-c2cc3ccccc3[nH]2)c2c(N)ncnc21 [Compound 24, 3-(1H-indol-2-yl)-1-isopropyl-1H-pyrazolo[3,4-d]pyrimidin-4-amine]
IC50 (CpCDPK1; [8]): 0.0704 µM
EC50 (PfCDPK1): 471 nM
EC50 (PfCDPK4): 337 nM
IC50 (Src3D): 1450 nM

Nc1ncnc2c1cnn2CC1CCNCC1 [Compound 99]
IC50 (SrcKD; Table 9): > 10 µM
IC50 (AblKD): > 10 µM

CC(C)(C)n1nc(Cc2cccc3ccccc23)c2c(N)ncnc21 [Compound 5d, 1-tert-butyl-3-(naphthalen-1-ylmethyl)-1H-pyrazolo[3,4-d]pyrimidin-4-amine]
IC50 (CpCDPK1; [8]): 0.144 µM
IC50 (CpCDPK1; read-out: CpCDPK1 IC50): 0.14 µM
IC50 (AblKD): 7.7 µM
Cell Toxicity SF539, % at 10 μM (glioma derived (SF539)): <30% at 10 μM
GI50 (glioma derived (SF539); human cell line SF539): > 10 µM
Cell Toxicity HL60, % at 10 μM [3]: <30% at 10 μM
GI50 ([3]; human cell line HL60): > 10 µM
Cell Toxicity CRL8155, % at 10 μM [4]: <30% at 10 μM
GI50 ([4]; human cell line CRL8155): > 10 µM
Cell Toxicity HCC2998, % at 10 μM [5]: <30% at 10 μM
GI50 ([5]; human cell line HCC2998): > 10 µM

Nc1ncnc2c1c(-c1cnc3ccccc3c1)nn2CC1CCNCC1 [Compound 30, 1-(piperidin-4-ylmethyl)-3-(quinolin-3-yl)-1H-pyrazolo[3,4-d]pyrimidin-4-amine]
IC50 (CpCDPK1; [8]): 0.0837 µM
IC50 (SrcKD; Table 9): > 20 µM
IC50 (AblKD): > 20 µM
Cell Toxicity SF539, % at 10 μM (glioma derived (SF539)): <30% at 10 μM
Cell Toxicity HL60, % at 10 μM [3]: <30% at 10 μM
Cell Toxicity HL60, % at 30 μM [3]: <30% at 30 μM
Cell Toxicity CRL8155, % at 10 μM [4]: <30% at 10 μM
Cell Toxicity CRL8155, % at 30 μM [4]: <30% at 30 μM
Cell Toxicity HCC2998, % at 10 μM [5]: <30% at 10 μM

CC(C)(C)n1ncc2c(N)ncnc21 [Compound 123]
IC50 (SrcKD; Table 9): > 10 µM
IC50 (AblKD): > 10 µM

NC[C@@H]1O[C@H](O[C@H]2[C@@H](O)[C@H](O[C@@H]3[C@@H](O)[C@H](N)C[C@H](N)[C@H]3O[C@H]3O[C@H](CO)[C@@H](O)[C@H](O)[C@H]3N)O[C@@H]2CO)[C@H](N)[C@@H](O)[C@@H]1O [Paromomycin, reference compound]
parasite burden rebound after treatment (C. parvum): quickly rebounded
parasites in stool (qRT-PCR) at the end of treatment (C. parvum): not detected

CC(C)n1nc(-c2cc3c(Cl)cccc3[nH]2)c2c(N)ncnc21 [Compound 26, 3-(4-chloro-1H-indol-2-yl)-1-isopropyl-1H-pyrazolo[3,4-d]pyrimidin-4-amine]
IC50 (CpCDPK1; [8]): 0.0162 µM
EC50 (PfCDPK4): 544 nM
IC50 (Src3D): 1240 nM
Cell Toxicity HL60, % at 10 μM [3]: 45% toxicity at
Cell Toxicity CRL8155, % at 10 μM [4]: 38% toxicity at

COc1ccc2cc(-c3nn(CC4CCNCC4)c4ncnc(N)c34)ccc2c1 [Compound 28, 3-(6-methoxynaphthalen-2-yl)-1-(piperidin-4-ylmethyl)-1H-pyrazolo[3,4-d]pyrimidin-4-amine]
IC50 (CpCDPK1; [8]): 0.0023 µM
IC50 (SrcKD; Table 9): > 20 µM
IC50 (AblKD): > 20 µM
IC50 (HckKD): > 10 µM
EC50 (PfCDPK1): 739 nM
EC50 (PfCDPK4): 18.8 nM
solubility ([2]; aqueous buffer, pH 2.0, read-out: Experimental Solubility pH 2.0): 49 µM (≈ 19 µg/mL)
solubility [2, 7]: 58 µM (≈ 22.5 µg/mL)
solubility ([2]; pH 7.4, aqueous buffer, read-out: Experimental Solubility pH 7.4): 56 µM (≈ 21.8 µg/mL)
AUC (in vivo): 151 µM·h
Cmax (in vivo): 84.1 µM
Tmax (in vivo): 40 min
Cell Toxicity SF539, % at 10 μM (glioma derived (SF539)): <30% at 10 μM
Cell Toxicity HL60, % at 10 μM [3]: <30% at 10 μM
Cell Toxicity HL60, % at 30 μM [3]: <30% at 30 μM
Cell Toxicity CRL8155, % at 10 μM [4]: <30% at 10 μM
Cell Toxicity CRL8155, % at 30 μM [4]: <30% at 30 μM
Cell Toxicity HCC2998, % at 10 μM [5]: <30% at 10 μM
AUC ([6]; mouse, in vivo, po): 20.5 µM·h
Cmax ([6]; mouse, in vivo, po): 4.41 µM
Tmax ([6]; mouse, in vivo, po): 160 min

CC(C)(C)n1nc(-c2cccc3ccccc23)c2c(N)ncnc21 [Compound 1, 1-tert-butyl-3-(naphthalen-1-yl)-1H-pyrazolo[3,4-d]pyrimidin-4-amine]
IC50 (CpCDPK1; read-out: IC50 (μM) CpCDPK1): > 3 µM
IC50 (SrcKD): 1.3 µM
inhibition of SRC (in words) (SRC): do not potently inhibit
IC50 (SRC): 1.3 µM
GI50 (glioma derived (SF539); human cell line SF539): > 10 µM
GI50 ([3]; human cell line HL60): > 10 µM
GI50 ([4]; human cell line CRL8155): > 10 µM
GI50 ([5]; human cell line HCC2998): > 10 µM
